In ChEMBL document CHEMBL4507300 (2021):

Legend:
[1] = test system: Tyrosine-protein kinase ABL1 (Homo sapiens), P00519 [Q252H]; settings: Compound concentration 1000.0 nM
[2] = test system: Tyrosine-protein kinase ABL1 (Homo sapiens), P00519 [Q252H]; settings: Compound concentration 1000.0 nM; remark: listed apart in the source
[3] = test system: Tyrosine-protein kinase ABL1 (Homo sapiens), P00519 [T315I]; settings: Compound concentration 1000.0 nM
[4] = target: Tyrosine-protein kinase ABL1 (Homo sapiens) (UniProt P00519); settings: Compound concentration 1000.0 nM
[5] = target: Tyrosine-protein kinase ABL2 (Homo sapiens) (UniProt P42684); settings: Compound concentration 1000.0 nM
[6] = target: Tyrosine-protein kinase receptor UFO (Homo sapiens) (UniProt P30530); settings: Compound concentration 1000.0 nM
[7] = target: Serine/threonine-protein kinase BRSK2 (Homo sapiens) (UniProt Q8IWQ3); settings: Compound concentration 1000.0 nM
[8] = target: Calcium/calmodulin-dependent protein kinase type 1G (Homo sapiens) (UniProt Q96NX5); settings: Compound concentration 1000.0 nM
[9] = target: Cyclin-dependent kinase 13 (Homo sapiens) (UniProt Q14004); settings: Compound concentration 1000.0 nM
[10] = target: Macrophage colony-stimulating factor 1 receptor (Homo sapiens) (UniProt P07333); settings: Compound concentration 1000.0 nM
[11] = target: Tyrosine-protein kinase CSK (Homo sapiens) (UniProt P41240); settings: Compound concentration 1000.0 nM
[12] = target: Casein kinase I isoform epsilon (Homo sapiens) (UniProt P49674); settings: Compound concentration 1000.0 nM
[13] = target: Casein kinase I isoform gamma-3 (Homo sapiens) (UniProt Q9Y6M4); settings: Compound concentration 1000.0 nM
[14] = target: Casein kinase II subunit alpha (Homo sapiens) (UniProt P68400); settings: Compound concentration 1000.0 nM
[15] = target: Death-associated protein kinase 1 (Homo sapiens) (UniProt P53355); settings: Compound concentration 1000.0 nM
[16] = target: Ephrin type-A receptor 4 (Homo sapiens) (UniProt P54764); settings: Compound concentration 1000.0 nM
[17] = target: Mitogen-activated protein kinase 15 (Homo sapiens) (UniProt Q8TD08); settings: Compound concentration 1000.0 nM
[18] = target: Glycogen synthase kinase-3 alpha (Homo sapiens) (UniProt P49840); settings: Compound concentration 1000.0 nM
[19] = target: Homeodomain-interacting protein kinase 2 (Homo sapiens) (UniProt Q9H2X6); settings: Compound concentration 1000.0 nM
[20] = target: Leukocyte tyrosine kinase receptor (Homo sapiens) (UniProt P29376); settings: Compound concentration 1000.0 nM
[21] = target: Tyrosine-protein kinase Lyn (Homo sapiens) (UniProt P07948); settings: Compound concentration 1000.0 nM
[22] = target: Mitogen-activated protein kinase kinase kinase 13 (Homo sapiens) (UniProt O43283); settings: Compound concentration 1000.0 nM
[23] = target: Mitogen-activated protein kinase kinase kinase 3 (Homo sapiens) (UniProt Q99759); settings: Compound concentration 1000.0 nM
[24] = target: MAP kinase-activated protein kinase 2 (Homo sapiens) (UniProt P49137); settings: Compound concentration 1000.0 nM
[25] = target: Hepatocyte growth factor receptor (Homo sapiens) (UniProt P08581); settings: Compound concentration 1000.0 nM
[26] = test system: Hepatocyte growth factor receptor (Homo sapiens), P08581 [M1250T]; settings: Compound concentration 1000.0 nM
[27] = target: Myosin light chain kinase (Homo sapiens) (UniProt Q32MK0); settings: Compound concentration 1000.0 nM
[28] = target: Serine/threonine-protein kinase 38 (Homo sapiens) (UniProt Q15208); settings: Compound concentration 1000.0 nM
[29] = target: Serine/threonine-protein kinase Nek1 (Homo sapiens) (UniProt Q96PY6); settings: Compound concentration 1000.0 nM
[30] = target: Serine/threonine-protein kinase Nek3 (Homo sapiens) (UniProt P51956); settings: Compound concentration 1000.0 nM
[31] = target: Serine/threonine-protein kinase Nek4 (Homo sapiens) (UniProt P51957); settings: Compound concentration 1000.0 nM
[32] = target: Serine/threonine-protein kinase NLK (Homo sapiens) (UniProt Q9UBE8); settings: Compound concentration 1000.0 nM
[33] = target: Cyclin-dependent kinase 16 (Homo sapiens) (UniProt Q00536); settings: Compound concentration 1000.0 nM
[34] = target: Platelet-derived growth factor receptor beta (Homo sapiens) (UniProt P09619); settings: Compound concentration 1000.0 nM
[35] = test system: Phosphatidylinositol 4,5-bisphosphate 3-kinase catalytic subunit alpha isoform (Homo sapiens), P42336 [E545K]; settings: Compound concentration 1000.0 nM
[36] = target: Phosphatidylinositol 4,5-bisphosphate 3-kinase catalytic subunit gamma isoform (Homo sapiens) (UniProt P48736); settings: Compound concentration 1000.0 nM
[37] = target: Protein kinase C epsilon type (Homo sapiens) (UniProt Q02156); settings: Compound concentration 1000.0 nM
[38] = target: Serine/threonine-protein kinase D1 (Homo sapiens) (UniProt Q15139); settings: Compound concentration 1000.0 nM
[39] = target: Serine/threonine-protein kinase RIO3 (Homo sapiens) (UniProt O14730); settings: Compound concentration 1000.0 nM
[40] = target: Ribosomal protein S6 kinase alpha-1 (Homo sapiens) (UniProt Q15418); settings: Compound concentration 1000.0 nM
[41] = target: Vascular endothelial growth factor receptor 2 (Homo sapiens) (UniProt P35968); settings: Compound concentration 1000.0 nM
[42] = target: Wee1-like protein kinase 2 (Homo sapiens) (UniProt P0C1S8); settings: Compound concentration 1000.0 nM
[43] = target: Serine/threonine-protein kinase WNK4 (Homo sapiens) (UniProt Q96J92); settings: Compound concentration 1000.0 nM
[44] = target: 5-hydroxytryptamine receptor 6 (Homo sapiens) (UniProt P50406); settings: Compound concentration 10.0 uM
[45] = target: D(1A) dopamine receptor (Homo sapiens) (UniProt P21728); settings: Compound concentration 10.0 uM
[46] = target: Sodium-dependent serotonin transporter (Homo sapiens, UniProt P31645); settings: Compound concentration 10.0 uM

Ribosomal protein S6 kinase alpha-1 (Homo sapiens), sequence (Q15418 whole entry): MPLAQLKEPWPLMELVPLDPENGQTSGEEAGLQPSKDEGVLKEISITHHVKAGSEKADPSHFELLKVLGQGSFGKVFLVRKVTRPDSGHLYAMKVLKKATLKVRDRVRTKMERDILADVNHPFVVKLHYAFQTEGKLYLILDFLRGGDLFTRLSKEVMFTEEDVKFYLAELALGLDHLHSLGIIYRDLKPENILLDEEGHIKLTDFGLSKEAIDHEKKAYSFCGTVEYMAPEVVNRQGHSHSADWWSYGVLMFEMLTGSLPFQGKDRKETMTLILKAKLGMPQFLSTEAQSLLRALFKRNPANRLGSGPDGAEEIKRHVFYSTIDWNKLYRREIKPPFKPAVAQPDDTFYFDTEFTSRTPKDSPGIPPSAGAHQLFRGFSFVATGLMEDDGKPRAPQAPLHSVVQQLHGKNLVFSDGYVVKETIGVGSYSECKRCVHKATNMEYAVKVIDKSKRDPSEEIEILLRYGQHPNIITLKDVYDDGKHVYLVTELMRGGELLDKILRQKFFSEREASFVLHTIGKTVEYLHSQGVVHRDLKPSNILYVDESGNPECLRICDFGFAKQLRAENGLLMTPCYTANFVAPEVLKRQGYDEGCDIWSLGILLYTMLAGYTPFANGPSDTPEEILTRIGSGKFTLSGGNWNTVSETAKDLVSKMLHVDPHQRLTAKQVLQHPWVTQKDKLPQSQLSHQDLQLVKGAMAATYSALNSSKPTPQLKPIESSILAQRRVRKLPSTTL
Casein kinase II subunit alpha (Homo sapiens), sequence (P68400 whole entry, looked up): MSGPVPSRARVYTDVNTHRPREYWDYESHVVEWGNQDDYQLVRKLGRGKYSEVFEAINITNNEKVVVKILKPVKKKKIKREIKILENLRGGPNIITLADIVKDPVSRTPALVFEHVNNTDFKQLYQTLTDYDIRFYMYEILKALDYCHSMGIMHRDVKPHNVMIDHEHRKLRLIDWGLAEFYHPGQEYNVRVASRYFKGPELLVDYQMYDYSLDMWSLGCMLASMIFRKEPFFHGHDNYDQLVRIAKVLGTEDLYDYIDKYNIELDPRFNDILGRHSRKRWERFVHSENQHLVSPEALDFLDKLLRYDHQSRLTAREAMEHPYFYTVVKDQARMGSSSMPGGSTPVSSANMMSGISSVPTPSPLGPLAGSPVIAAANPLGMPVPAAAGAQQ
Serine/threonine-protein kinase Nek1 (Homo sapiens), sequence (Q96PY6 whole entry): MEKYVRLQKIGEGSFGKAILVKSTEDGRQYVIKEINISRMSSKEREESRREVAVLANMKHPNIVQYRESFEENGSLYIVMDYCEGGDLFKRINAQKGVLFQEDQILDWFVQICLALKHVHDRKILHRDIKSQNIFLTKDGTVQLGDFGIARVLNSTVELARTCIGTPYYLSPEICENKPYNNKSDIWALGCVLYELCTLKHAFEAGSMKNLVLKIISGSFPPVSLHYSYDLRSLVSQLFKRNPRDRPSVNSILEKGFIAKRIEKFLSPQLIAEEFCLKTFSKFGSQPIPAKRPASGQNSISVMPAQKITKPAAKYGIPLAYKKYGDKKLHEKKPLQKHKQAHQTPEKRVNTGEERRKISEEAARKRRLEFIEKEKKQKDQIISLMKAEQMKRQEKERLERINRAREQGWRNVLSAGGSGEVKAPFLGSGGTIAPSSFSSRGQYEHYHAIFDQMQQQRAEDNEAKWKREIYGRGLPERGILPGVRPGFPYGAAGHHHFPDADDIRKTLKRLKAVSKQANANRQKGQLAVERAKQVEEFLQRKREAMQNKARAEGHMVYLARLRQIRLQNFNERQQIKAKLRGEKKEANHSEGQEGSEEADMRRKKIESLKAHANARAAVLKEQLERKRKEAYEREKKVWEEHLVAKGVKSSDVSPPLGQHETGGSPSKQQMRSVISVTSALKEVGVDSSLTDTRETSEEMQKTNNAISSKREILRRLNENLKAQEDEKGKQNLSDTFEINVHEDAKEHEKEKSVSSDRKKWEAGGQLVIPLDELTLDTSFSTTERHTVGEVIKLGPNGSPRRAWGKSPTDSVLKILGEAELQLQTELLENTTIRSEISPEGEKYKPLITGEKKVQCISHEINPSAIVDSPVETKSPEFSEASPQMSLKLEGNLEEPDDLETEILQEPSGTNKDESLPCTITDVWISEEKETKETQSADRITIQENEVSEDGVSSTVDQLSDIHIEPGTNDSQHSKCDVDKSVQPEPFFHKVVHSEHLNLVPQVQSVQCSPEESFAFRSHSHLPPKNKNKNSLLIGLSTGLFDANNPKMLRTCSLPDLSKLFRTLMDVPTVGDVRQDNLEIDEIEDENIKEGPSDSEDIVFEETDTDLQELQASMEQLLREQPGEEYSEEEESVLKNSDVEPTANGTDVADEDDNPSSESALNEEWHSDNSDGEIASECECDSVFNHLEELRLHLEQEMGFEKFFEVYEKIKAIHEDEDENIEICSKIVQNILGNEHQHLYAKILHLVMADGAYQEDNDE
Tyrosine-protein kinase receptor UFO (Homo sapiens), sequence (P30530 whole entry): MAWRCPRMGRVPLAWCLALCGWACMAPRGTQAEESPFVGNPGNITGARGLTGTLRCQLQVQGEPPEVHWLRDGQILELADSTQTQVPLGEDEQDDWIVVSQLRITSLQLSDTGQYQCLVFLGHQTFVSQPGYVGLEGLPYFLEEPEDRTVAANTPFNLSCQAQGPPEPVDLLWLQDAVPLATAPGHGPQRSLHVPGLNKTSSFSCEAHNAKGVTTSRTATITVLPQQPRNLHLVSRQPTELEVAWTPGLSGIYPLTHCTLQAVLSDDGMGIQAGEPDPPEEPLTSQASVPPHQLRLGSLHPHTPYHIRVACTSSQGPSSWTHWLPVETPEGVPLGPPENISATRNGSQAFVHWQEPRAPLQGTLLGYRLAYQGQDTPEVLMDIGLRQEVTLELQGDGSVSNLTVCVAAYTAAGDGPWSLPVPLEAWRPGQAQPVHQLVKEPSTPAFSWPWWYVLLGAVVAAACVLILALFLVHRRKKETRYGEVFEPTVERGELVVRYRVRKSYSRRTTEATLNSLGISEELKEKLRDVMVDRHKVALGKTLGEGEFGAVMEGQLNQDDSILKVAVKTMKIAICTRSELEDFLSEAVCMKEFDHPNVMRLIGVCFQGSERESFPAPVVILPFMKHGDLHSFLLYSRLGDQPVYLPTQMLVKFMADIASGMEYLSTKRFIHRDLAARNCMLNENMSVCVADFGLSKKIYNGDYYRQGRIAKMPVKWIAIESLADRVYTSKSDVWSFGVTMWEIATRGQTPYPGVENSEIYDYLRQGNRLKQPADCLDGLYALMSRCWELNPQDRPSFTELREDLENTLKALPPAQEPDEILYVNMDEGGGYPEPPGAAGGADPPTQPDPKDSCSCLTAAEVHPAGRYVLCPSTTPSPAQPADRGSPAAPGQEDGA
Myosin light chain kinase (Homo sapiens), sequence (Q32MK0 whole entry): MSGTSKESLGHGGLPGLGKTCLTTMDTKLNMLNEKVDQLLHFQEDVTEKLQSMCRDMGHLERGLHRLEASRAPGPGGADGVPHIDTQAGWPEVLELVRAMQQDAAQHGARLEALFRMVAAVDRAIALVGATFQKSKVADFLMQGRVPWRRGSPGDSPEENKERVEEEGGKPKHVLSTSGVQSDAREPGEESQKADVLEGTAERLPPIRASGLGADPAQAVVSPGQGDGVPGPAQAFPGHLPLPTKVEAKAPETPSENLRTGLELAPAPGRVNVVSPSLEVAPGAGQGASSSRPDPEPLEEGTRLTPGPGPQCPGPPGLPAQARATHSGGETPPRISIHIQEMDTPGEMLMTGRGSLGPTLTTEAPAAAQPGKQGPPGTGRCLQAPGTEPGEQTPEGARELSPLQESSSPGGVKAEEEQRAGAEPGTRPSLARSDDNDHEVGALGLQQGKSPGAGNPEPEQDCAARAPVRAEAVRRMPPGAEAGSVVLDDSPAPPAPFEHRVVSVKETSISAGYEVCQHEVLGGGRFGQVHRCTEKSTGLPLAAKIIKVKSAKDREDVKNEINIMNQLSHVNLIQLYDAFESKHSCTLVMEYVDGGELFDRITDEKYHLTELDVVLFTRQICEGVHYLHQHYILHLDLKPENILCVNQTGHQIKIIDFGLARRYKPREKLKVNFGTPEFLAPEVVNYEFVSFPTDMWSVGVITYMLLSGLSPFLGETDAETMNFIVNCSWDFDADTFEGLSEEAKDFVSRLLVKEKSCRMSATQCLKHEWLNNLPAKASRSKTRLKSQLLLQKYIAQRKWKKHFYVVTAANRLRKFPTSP
MAP kinase-activated protein kinase 2 (Homo sapiens), sequence (P49137 whole entry, looked up): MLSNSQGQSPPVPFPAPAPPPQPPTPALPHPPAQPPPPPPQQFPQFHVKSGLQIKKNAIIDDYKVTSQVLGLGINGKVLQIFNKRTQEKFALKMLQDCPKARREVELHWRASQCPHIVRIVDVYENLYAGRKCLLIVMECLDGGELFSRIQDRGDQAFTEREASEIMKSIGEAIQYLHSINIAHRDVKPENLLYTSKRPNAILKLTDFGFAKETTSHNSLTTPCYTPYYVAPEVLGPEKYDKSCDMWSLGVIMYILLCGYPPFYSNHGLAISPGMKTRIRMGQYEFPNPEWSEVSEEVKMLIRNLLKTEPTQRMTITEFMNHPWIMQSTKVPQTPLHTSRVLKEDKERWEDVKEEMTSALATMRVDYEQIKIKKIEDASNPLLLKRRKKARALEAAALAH
Serine/threonine-protein kinase Nek3 (Homo sapiens), sequence (P51956 whole entry): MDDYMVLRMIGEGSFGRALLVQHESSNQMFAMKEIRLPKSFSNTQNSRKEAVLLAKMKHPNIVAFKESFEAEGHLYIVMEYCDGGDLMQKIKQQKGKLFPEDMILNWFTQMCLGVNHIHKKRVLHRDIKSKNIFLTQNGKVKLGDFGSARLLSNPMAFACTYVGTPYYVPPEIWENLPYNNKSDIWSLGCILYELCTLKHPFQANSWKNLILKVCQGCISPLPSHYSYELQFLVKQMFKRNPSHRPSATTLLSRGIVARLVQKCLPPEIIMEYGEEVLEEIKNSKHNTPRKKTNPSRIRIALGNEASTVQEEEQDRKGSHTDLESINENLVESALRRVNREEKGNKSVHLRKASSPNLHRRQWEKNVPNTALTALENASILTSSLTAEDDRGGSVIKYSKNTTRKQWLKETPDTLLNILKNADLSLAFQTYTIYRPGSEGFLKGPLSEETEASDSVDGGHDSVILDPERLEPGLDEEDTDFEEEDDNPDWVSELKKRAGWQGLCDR

COc1cccc(CNC(=O)c2nc3scc(COCc4ccc(C(=O)O)cc4)c3c(=O)[nH]2)c1 [T-26c]
inactive: residual activity [1] 86.4% | residual activity [2] 91.4% | residual activity [3] 77.5% | residual activity [4] 85% | residual activity [5] 82.2% | residual activity [6] 84.2% | residual activity [7] 77.3% | residual activity [8] 100% | residual activity [9] 67.6% | residual activity [10] 100% | residual activity [11] 100% | residual activity [12] 100% | residual activity [13] 96.6% | residual activity [14] 90.7% | residual activity [15] 100% | residual activity [16] 91.1% | residual activity [17] 82.4% | residual activity [18] 100% | residual activity [19] 72.9% | residual activity [20] 70.6% | residual activity [21] 93.7% | residual activity [22] 61.5% | residual activity [23] 78.9% | residual activity [24] 64.3% | residual activity [25] 100% | residual activity [26] 98% | residual activity [27] 72.8% | residual activity [28] 72% | residual activity [29] 100% | residual activity [30] 78.1% | residual activity [31] 83.8% | residual activity [32] 80.3% | residual activity [33] 91.9% | residual activity [34] 99% | residual activity [35] 86.3% | residual activity [36] 76.8% | residual activity [37] 62% | residual activity [38] 100% | residual activity [39] 63.2% | residual activity [40] 100% | residual activity [41] 70% | residual activity [42] 96.9% | residual activity [43] 100% | inhibition [44] 15.8% | inhibition [45] -6.24% | inhibition [46] -3.64%
